Target: T1, STK39 (STLK3) (Homo sapiens, UniProt Q9UEW8)
T1 construct: purchased Thermo Fisher Scientific (Life Technologies) SelectScreen
Test: SelectScreen LanthaScreen
Type: binding
Conditions: read-out: % displacement
Procedure, shortened: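 Percent values come from Thermo SelectScreen profiling of NU5455, combining activity and binding assays. CSF1R was run in Z'LYTE format at Km app ATP, and CAMK1 in Adapta format with ATP listed at 10.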

## CN(C(=O)CN1CCOCC1)c1ccc2sc3c(-c4cccc5c(=O)cc(N6CC7CCC(C6)O7)oc45)cccc3c2c1 [NU5455]
  inhibition at 1 µM: 16.2%
